Assay results published in US20230277546A1, “AGENT FOR SUPPRESSING POST-SURGICAL CANCER RECURRENCE AND/OR METASTASIS” (ONO PHARMACEUTICAL CO., LTD., priority 2017, published 2023).
Where a name gives a salt, the structure may show the parent alone.

What was measured:
malignant lung tumor = experiment: Analysis of effects of landiolol hydrochloride in patients who underwent lung resection surgery (recurrence-free and overall survival, Kaplan-Meier); assay type: in vivo, human
Procedure: Ethics committee approval was obtained before the study was started. Among the patients who underwent lung lobectomy, the outcomes were compared between those who were treated with landiolol hydrochloride and those who were not treated with it.
For each patient the following information was drawn from the medical chart from May 2012 to Mar. 31, 2017 and recorded in clinical report form (CRF). • Background of the patient (date of birth, sex, stage of lung cancer, weight, height, and performance status) • Date of the lung cancer surgery • Whether landiolol hydrochloride was administered or not, and if administered, the dose thereof • Date on which recurrence was diagnosed (date of diagnostic imaging or date on which recurrence was clinically diagnosed) • Date on which recurrence-free survival was last confirmed • Date of death • Date on which survival was last confirmed • Whether adjuvant chemotherapy was applied or not
The 2-year recurrence-free survival rate was compared between the patients who had been treated with landiolol hydrochloride and the patients who had not been treated with it to evaluate the effect of landiolol hydrochloride.
Kaplan-Meier method as described below was employed to calculate the 2-year recurrence-free survival rate.
The recurrence was defined as follows; • The recurrence included both of recurrence diagnosed on the basis of diagnostic imaging and clinical recurrence diagnosed on the basis of aggravation of a symptom instead of the diagnostic imaging. The date of recurrence was the date of the diagnostic imaging or the date on which the clinical recurrence was diagnosed. Even if an increased tumor marker was detected previously, the fact alone was not regarded as indicating recurrence and the date of recurrence was the date of the diagnostic imaging or the date on which the clinical recurrence was diagnosed. When no recurrence was diagnosed during the observation period, the patients were censored on the day of final confirmation of recurrence-free survival. • When recurrence was diagnosed by the diagnostic imaging, the event was regarded as having occurred on the date of the diagnostic imaging that gave the definitive diagnosis, not the date of the diagnostic imaging that raised the suspicion of recurrence. When recurrence was clinically diagnosed, the event was regarded as having occurred on the date of the diagnosis. • Definitive diagnosis of recurrence may be based on biopsy analysis. When recurrence was successfully diagnosed by the clinical diagnosis before the biopsy analysis, the event was regarded as having occurred on the date of the clinical diagnosis. When recurrence was not successfully diagnosed by the clinical diagnosis alone, but finally diagnosed by the biopsy analysis, the event was regarded as having occurred on the date of the biopsy analysis. • Occurrence of any one of secondary cancer, metachronous double cancers, and metachronous multiple cancers was not regarded as the event or the censor. Unless another event was observed, the patient was regarded as being recurrence-free. […]
The recurrence-free survival and the overall survival were calculated according to the following equations; • The recurrence-free survival (days)=“date of diagnosis of recurrence or date of death for any cause, whichever came earlier”−“date of surgery”+1 • The overall survival (days)=“date of death for any cause”−“date of surgery”+1 […]

[1] = tested on: non-small cell lung cancer; experiment: Multicenter, unblinded, randomized, controlled investigator-initiated clinical trial: perioperative landiolol hydrochloride to suppress postsurgical recurrence; assay type: in vivo, human; details: 2.5 μg/kg/min at the beginning, adjusted 0.5 to 5 μg/kg/min; continuous iv from immediately before anesthetic induction for 72 hours
Procedure: Patients with non-small cell lung cancer who will undergo surgery for complete resection of the cancer are involved in the study. For evaluating effectiveness and safety of landiolol hydrochloride in the patients, a multicenter, unblinded, randomized, controlled, investigator-initiated clinical trial is carried out as described below. The control group includes the patients who undergo the surgery but are not treated with landiolol hydrochloride.
Primary endpoints: recurrence-free survival (RFS) over first two postoperative years and overall survival (OS)
Secondary endpoints: <Effectiveness> For example, whether the patients are subjected to treatment of recurrence or not, and if subjected, the period until the treatment; the time until OS or the treatment of recurrence, <Safety> adverse events, incidence of postoperative complication, blood pressure, 12-lead electrocardiogram, and general laboratory test
Dosage: 2.5 μg/kg/min at the beginning and adjusted in the range of 0.5 to 5 μg/kg/min
Administration period: continuous intravenous administration is started immediately before the anesthetic induction and kept for 72 hours

[2] = vs control group without administration, after lung cancer surgery

CC1(C)OC[C@@H](COC(=O)CCc2ccc(OC[C@@H](O)CNCCNC(=O)N3CCOCC3)cc2)O1 [landiolol hydrochloride, Landiolol hydrochloride]
Censor, (%) (malignant lung tumor; censored patients, first two postoperative years, test group N = 28): (89.3) % | 2-year Recurrence-free survival rate [95% CI] (malignant lung tumor; patients after lung resection surgery, intravenous continuous 2.5 μg/kg/min from induction to completion of anesthesia, N = 28, Kaplan-Meier): 89.3% | Event, (%) (malignant lung tumor; recurrence or death events within first two postoperative years, test group N = 28, 2.5 μg/kg/min iv continuous during anesthesia): (10.7) % | overall survival (Kaplan-Meier curve, FIG. 2) (malignant lung tumor; [2]): tendency that the administration of landiolol hydrochloride prolongs | recurrence-free survival (Kaplan-Meier curve, FIG. 1) (malignant lung tumor; [2]): tendency that the administration of landiolol hydrochloride prolongs | effect to suppress recurrence and/or metastasis of the cancer [1]: confirms the effect
